target: T1, ETA Receptor (Rattus norvegicus, UniProt P26684); test: [125I]ET-1 binding to membranes from MMQ cells (ETA receptor binding assay, Table 4); conditions: test compound at 1 μM; 0.1 nM [125I]ET-1, MMQ cell membranes, 4 hours at 25° C.
T1 construct: endogenous in cells; host or cells: MMQ rat pituitary cells (membranes)
T1 sequence (P26684 21-426): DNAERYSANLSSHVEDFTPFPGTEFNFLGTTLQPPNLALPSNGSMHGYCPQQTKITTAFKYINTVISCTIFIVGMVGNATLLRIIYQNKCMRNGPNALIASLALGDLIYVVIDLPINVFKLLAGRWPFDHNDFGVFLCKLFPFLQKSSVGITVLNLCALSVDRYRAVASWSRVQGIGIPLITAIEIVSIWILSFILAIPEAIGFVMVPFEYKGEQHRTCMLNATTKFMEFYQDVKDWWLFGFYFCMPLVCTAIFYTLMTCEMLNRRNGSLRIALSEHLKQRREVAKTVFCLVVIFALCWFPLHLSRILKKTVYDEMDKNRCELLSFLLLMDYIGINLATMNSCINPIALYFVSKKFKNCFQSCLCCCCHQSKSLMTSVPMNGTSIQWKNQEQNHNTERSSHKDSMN
Procedure: Preparation of Membranes from MMQ Cells:
MMQ [MacLeod/MacQueen/Login cell line (prolactin secreting rat pituitary cells)] cells from 150 mL culture flasks were collected by centrifugation (1000×g for 10 min) and then homogenized in 25 mL of 10 mM Hepes (pH 7.4) containing 0.25 M sucrose and protease inhibitors [3 mM EDTA, 0.1 mM PMSF, and 5 μg/mL Pepstatin A] by a micro ultrasonic cell disrupter (Kontes). The mixture was centrifuged at 1000×g for 10 min. The supernatant was collected and centrifuged at 60,000×g for 60 min. The precipitate was resuspended in 20 mM Tris, pH 7.4 containing the above protease inhibitors and centrifuged again. The final pellet was resuspended in 20 mM Tris, pH 7.4 containing protease inhibitors and stored at −80° C. until used. Protein content was determined by the Bio-Rad dye-binding protein assay.
Binding assays were performed in 96-well microtiter plates pretreated with 0.1% BSA. […] After incubation, unbound ligands were separated from bound ligands by a vacuum filtration method using glass-fiber filter strips in PHD cell harvesters (Cambridge Technology, Inc., MA), followed by washing the filter strips with saline (1 mL) for three times. Nonspecific binding was determined in the presence of 1 μM ET-1.

First: CCCCCCN(C)C(=O)CN1CC(c2ccc3c(c2)OCO3)C(C(=O)O)C1c1ccc(OC)cc1 (stereo not drawn) [Example 42, trans,trans-2-(4-Methoxyphenyl)-4-(1,3-benzodioxol-5-yl)-1-(N-methyl-N-(n-hexyl)aminocarbonylmethyl)-pyrrolidine-3-carboxylic acid]
Second: CCCCC(=O)CN1CC(c2ccc3c(c2)OCO3)C(C(=O)O)C1c1ccc(OC)cc1 (stereo not drawn) [Example 72C, trans,trans-2-(4-Methoxyphenyl)-4-(1,3-benzodioxol-5-yl)-1-(valerylmethyl)-pyrrolidine-3-carboxylic acid]
The “% Inhibition of ETA at 1 μM” value of the first is higher: 95.2% for the first, 80.7% for the second.

Compared with `CCN(CC)C(=O)CN1CC(c2ccc3c(c2)OCO3)C(C(=O)O)C1c1ccc(OC)cc1` (stereo not drawn) [Example 44, trans,trans-2-(4-Methoxyphenyl)-4-(1,3-benzodioxol-5-yl)-1-(N,N-diethylaminocarbonylmethyl)-pyrrolidine-3-carboxylic acid], `COc1ccc(C2C(C(=O)O)C(c3ccc4c(c3)OCO4)CN2CCN(C)C(=O)C(C)C)cc1` (stereo not drawn) [Example 61C, trans,trans-2-(4-Methoxyphenyl)-4-(1,3-benzodioxol-5-yl)-1-(2-(N-methyl-N-isobutyrylamino)ethyl)-pyrrolidine-3-carboxylic acid] is lower in “% Inhibition of ETA at 1 μM” value: 91.3% for the first, 90.6% for the second.

Going from `COc1ccc(C2C(C(=O)O)C(c3ccc4c(c3)OCO4)CN2CC(=O)N(C)c2ccccc2)cc1` (stereo not drawn) [Example 45, trans,trans-2-(4-Methoxyphenyl)-4-(1,3-benzodioxol-5-yl)-1-(N-methyl-N-phenylaminocarbonylmethyl)-pyrrolidine-3-carboxylic acid] to `COc1ccc(C2C(C(=O)O)C(c3ccc4c(c3)OCO4)CN2CC(=O)N(C)Cc2ccc(OC)c(OC)c2)cc1` (stereo not drawn) [Example 73C, trans,trans-2-(4-Methoxyphenyl)-4-(1,3-benzodioxol-5-yl)-1-(N-(3,4-dimethoxybenzyl)-N-methylaminocarbonylmethyl)pyrrolidine-3-carboxylic acid], the “% Inhibition of ETA at 1 μM” value rises from 85.4% to 96.3%.

First: CCCN(C)C(=O)CN1CC(c2ccc3c(c2)CCO3)C(C(=O)O)C1c1ccc(OC)cc1 (stereo not drawn) [Example 52, trans,trans-2-(4-Methoxyphenyl)-4-(2,3-dihydrobenzofuran-5-yl)-1-(N-methyl-N-propyl)aminocarbonylmethyl)-pyrrolidine-3-carboxylic acid]
Second: CCCN(C)C(=O)CN1CC(c2ccc(OC)c(OC)c2)C(C(=O)O)C1c1ccc(OC)cc1 (stereo not drawn) [Example 54, trans,trans-2-(4-Methoxyphenyl)-4-(3,4-dimethoxyphenyl)-1-(N-methyl-N-propyl)aminocarbonylmethyl)-pyrrolidine-3-carboxylic acid]
The “% Inhibition of ETA at 1 μM” value of the first is higher: 84.0% for the first, 64.6% for the second.

Compared with `CCCN(C)C(=O)CN1CC(c2cccc(OC)c2)C(C(=O)O)C1c1ccc(OC)cc1` (stereo not drawn) [Example 55, trans,trans-2-(4-Methoxyphenyl)-4-(3-methoxyphenyl)-1-(N-methyl-N-propyl)aminocarbonylmethyl)-pyrrolidine-3-carboxylic acid], `CCCN(C)C(=O)CN1CC(c2ccc3ccccc3c2)C(C(=O)O)C1c1ccc(OC)cc1` (stereo not drawn) [Example 56, trans,trans-2-(4-Methoxyphenyl)-4-(2-naphthyl)-1-(N-methyl-N-propyl)aminocarbonylmethyl)-pyrrolidine-3-carboxylic acid] is lower in “% Inhibition of ETA at 1 μM” value: 50.5% for the first, 34.3% for the second.

Going from `CC[S+]([O-])CCN1CC(c2ccc3c(c2)OCO3)C(C(=O)O)C1c1ccc(OC)cc1` (stereo not drawn) [Example 57, trans,trans-2-(4-Methoxyphenyl)-4-(1,3-benzodioxol-5-yl)-1-(2-(ethylsulfinyl)ethyl)-pyrrolidine-3-carboxylic acid] to `CCCN(CCN1CC(c2ccc3c(c2)OCO3)C(C(=O)O)C1c1ccc(OC)cc1)S(=O)(=O)CC` (stereo not drawn) [Example 128, trans,trans-1-(2-(N-Propyl-N-(ethylsulfonyl)amino)ethyl)-2-(4-methoxyphenyl)-4-(1,3-benzodioxol-5-yl)pyrrolidine-3-carboxylic acid], the “% Inhibition of ETA at 1 μM” value rises from 93.2% to 95.4%.

Going from `COc1ccc(C2C(C(=O)O)C(c3ccc4c(c3)OCO4)CN2C/C=C/CC(C)C)cc1` (stereo not drawn) [Example 69D, trans,trans-2-(4-Methoxyphenyl)-4-(1,3-benzodioxol-5-yl)-1-N-(trans-5-methylhex-2-enyl)-pyrrolidine-3-carboxylic acid] to `CCCN(CCN1CC(c2ccc3c(c2)OCO3)C(C(=O)O)C1c1ccc(OC)cc1)S(=O)(=O)CCOC` (stereo not drawn) [Example 125, trans,trans-1-(2-(N-Propyl-N-(2-methoxyethylsulfonyl)amino)ethyl)-2-(4-methoxyphenyl)-4-(1,3-benzodioxol-5-yl)pyrrolidine-3-carboxylic acid], the “% Inhibition of ETA at 1 μM” value rises from 37.4% to 97.2%.

Going from `CCCCCC1C(C(=O)O)C(c2ccc3c(c2)OCO3)CN1CC(=O)N(CCCC)CCCC` (stereo not drawn) [Example 92C, trans,trans-2-(Pentyl)-4-(1,3-benzodioxol-5-yl)-1-(N,N-di(n-butyl)aminocarbonylmethyl)pyrrolidine-3-carboxylic acid] to `CCCCCC1C(C(=O)O)C(c2ccc3c(c2)OCO3)CN1CCN(CCC)S(=O)(=O)CCC` (stereo not drawn) [Example 93C, trans,trans-2-(Pentyl)-4-(1,3-benzodioxol-5-yl)-1-[2-(N-propyl-N-propylsulfonylamino)ethyl]pyrrolidine-3-carboxylic acid], the “% Inhibition of ETA at 1 μM” value falls from 107.4% to 59.2%.

First: CCCN(CCN1CC(c2ccc3c(c2)OCO3)C(C(=O)O)C1c1ccc(OC)cc1)S(=O)(=O)c1ccc(C)cc1C (stereo not drawn) [Example 123, trans,trans-1-(2-(N-Propyl-N-(2,4-dimethylbenzenesulfonyl)amino)ethyl)-2-(4-methoxyphenyl)-4-(1,3-benzodioxol-5-yl)pyrrolidine-3-carboxylic acid]
Second: CCCN(CCN1CC(c2ccc3c(c2)OCO3)C(C(=O)O)C1c1ccc(OC)cc1)S(=O)(=O)c1ccc(C)cc1 (stereo not drawn) [Example 129, trans,trans-1-(2-(N-Propyl-N-(4-methylbenzenesulfonyl)amino)ethyl)-2-(4-methoxyphenyl)-4-(1,3-benzodioxol-5-yl)pyrrolidine-3-carboxylic acid]
The “% Inhibition of ETA at 1 μM” value of the first is lower: 89.7% for the first, 100.1% for the second.

Going from `CCCN(CCN1CC(c2ccc3c(c2)OCO3)C(C(=O)O)C1c1ccc(OC)cc1)S(=O)(=O)CCCCl` (stereo not drawn) [Example 124, trans,trans-1-(2-(N-Propyl-N-(3-chloropropylsulfonyl)amino)ethyl)-2-(4-methoxyphenyl)-4-(1,3-benzodioxol-5-yl)pyrrolidine-3-carboxylic acid] to `CCCN(CCN1CC(c2ccc3c(c2)OCO3)C(C(=O)O)C1c1ccc(OC)cc1)S(=O)(=O)CCOCC` (stereo not drawn) [Example 126, trans,trans-1-(2-(N-Propyl-N-(2-ethoxyethylsulfonyl)amino)ethyl)-2-(4-methoxyphenyl)-4-(1,3-benzodioxol-5-yl)pyrrolidine-3-carboxylic acid], the “% Inhibition of ETA at 1 μM” value rises from 91.0% to 91.7%.

`CCCN(CCN1CC(c2ccc3c(c2)OCO3)C(C(=O)O)C1c1ccc(OC)cc1)S(=O)(=O)c1cccc2c(N(C)C)cccc12` (stereo not drawn) [Example 127, trans,trans-1-(2-(N-Propyl-N-(5-dimethylamino-1-naphthylsulfonyl)amino)ethyl)-2-(4-methoxyphenyl)-4-(1,3-benzodioxol-5-yl)pyrrolidine-3-carboxylic acid] was tested, and the “% Inhibition of ETA at 1 μM” value was 91.4%.

same assay, conditions: test compound at 1 μM; 0.1 nM [125I]ET-1, MMQ cell membranes, 4 hours at 25° C.; read-out: % Inhibition of ETA at 1 μM

Going from `CCC[C@H](C(=O)N(CCC)CCC)N1C[C@@H](c2ccc3c(c2)OCO3)[C@@H](C(=O)O)[C@@H]1c1ccc(OC)cc1` [Example 75C, (2R,3R,4R)-2-(4-Methoxyphenyl)-4-(1,3-benzodioxol-5-yl)-1-((1R)-1-(N,N-dipropylaminocarbonyl)-1-butyl)pyrrolidine-3-carboxylic acid] to `CCC[C@H](C(=O)N(CCC)CCC)N1C[C@H](c2ccc3c(c2)OCO3)[C@H](C(=O)O)[C@H]1c1ccc(OC)cc1` [Example 76, (2S,3S,4S)-2-(4-Methoxyphenyl)-4-(1,3-benzodioxol-5-yl)-1-((1R)-1-(N,N-dipropylaminocarbonyl)-1-butyl)pyrrolidine-3-carboxylic acid], the inhibition at 1 µM falls from 95.3% to 93.1%.

Source: patent US7208517B1, “Endothelin antagonists” (Abbott Labortories, priority 1994, dated 2007)
